No end group written: not given here.

From patent US6111065A, “Peptide inhibitors of inflammation mediated by selectins” (Centocor, Inc., priority 1994, dated 2000) come the findings set out here.

For this assay, the target named is T1, GMP-140 (Homo sapiens, UniProt P16109).
T1 construct: from tissue; host or cells: human platelets (outdated platelet packs from a blood bank)
T1 sequence (P16109 42-830): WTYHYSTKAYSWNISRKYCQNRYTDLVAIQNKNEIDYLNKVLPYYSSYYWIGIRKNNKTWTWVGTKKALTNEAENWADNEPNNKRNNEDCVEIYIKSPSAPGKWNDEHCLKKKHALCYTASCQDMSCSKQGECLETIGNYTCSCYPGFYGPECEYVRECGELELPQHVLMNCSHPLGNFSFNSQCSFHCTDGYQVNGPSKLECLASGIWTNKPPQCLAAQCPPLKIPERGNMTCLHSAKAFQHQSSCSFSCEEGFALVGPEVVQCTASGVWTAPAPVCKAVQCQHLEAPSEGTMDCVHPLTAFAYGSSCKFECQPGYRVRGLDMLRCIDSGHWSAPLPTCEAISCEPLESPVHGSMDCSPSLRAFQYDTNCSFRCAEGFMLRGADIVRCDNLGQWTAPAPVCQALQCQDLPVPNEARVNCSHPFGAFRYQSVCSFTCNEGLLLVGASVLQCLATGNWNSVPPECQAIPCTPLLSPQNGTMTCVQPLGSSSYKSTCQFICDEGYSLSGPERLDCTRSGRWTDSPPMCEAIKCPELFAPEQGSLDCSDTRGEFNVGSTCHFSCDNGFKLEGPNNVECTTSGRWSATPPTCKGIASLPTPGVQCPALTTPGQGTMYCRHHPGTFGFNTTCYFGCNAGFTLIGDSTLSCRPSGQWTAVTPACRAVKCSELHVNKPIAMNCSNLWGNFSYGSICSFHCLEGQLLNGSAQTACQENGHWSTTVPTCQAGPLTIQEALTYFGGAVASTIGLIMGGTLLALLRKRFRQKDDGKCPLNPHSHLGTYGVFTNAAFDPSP
The assay can be described thus: Inhibition of neutrophil binding to GMP-140 coated wells. It is filed as cell-based. As to conditions: read-out: PERCENT INHIBITION OF NEUTROPHIL BINDING. An excerpt:
Peptides can be screened for their ability to inhibit adhesion to cells, for example, neutrophil adhesion to purified GMP-140 immobilized on plastic wells, using the assay described by Geng, et al., Nature 343, 757-760 (1990).
Human neutrophils are isolated from heparinized whole blood by density gradient centrifugation on Mono-Poly resolving media, Flow Laboratories. Neutrophil suspensions are greater than 98% pure and greater than 95% viable by trypan blue exclusion. For adhesion assays, neutrophils are suspended at a concentration of 2×10^6 cells/ml in Hanks' balanced salt solution containing 1.26 mM Ca^2+ and 0.81 mM Mg^2+ (HBSS, Gibco) with 5 mg/ml human serum albumin (HBSS/HSA). Adhesion assays are conducted in triplicate in 96-well microtiter plates, Corning, incubated at 4° C. overnight with 50 microliters of various protein solutions.
GMP-140 is isolated from human platelet lysates by immunoaffinity chromatography on antibody S12-Sepharose™ and ion-exchange chromatography on a Mono-Q™ column (FLPC, Pharmacia Fine Chemicals), as follows.
Outdated human platelet packs (100 units) obtained from a blood bank and stored at 4° C. are pooled, adjusted to 5 mM EDTA at pH 7.5, centrifuged at 4,000 rpm for 30 min in 1 liter bottles, then washed three times with 1 liter of 0.1 M NaCl, 20 mM Tris pH 7.5 (TBS), 5 mM EDTA, 5 mM benzamidine.
The pellets are then resuspended in a minimum amount of wash buffer and made 1 mM in DIFP, then frozen in 50 ml screwtop tubes at -80° C. The frozen platelets are thawed and resuspended in 50 ml TBS, 5 mM benzamidine, 5 mM EDTA pH 7.5, 100 µM leupeptin. The suspension is frozen and thawed two times in a dry ice-acetone bath using a 600 ml lyophilizing flask, then homogenized in a glass/teflon mortar and pestle and made 1 mM in DIFP. The NaCl concentration is adjusted to 0.5 M with a stock solution of 4 M NaCl. […]
Bound GMP-140 is eluted from the S12 Affigel with 100 ml of 80% ethylene glycol, 1 mM MES pH 6.0, 0.01% Lubrol PX. Peak fractions with absorbance at 280 nm are pooled. […]

A word on the inhibition: it is how much of the control response was suppressed. As to “RKEAEIWTDV-NH2 [RKEAEIWTDV-NH2, Arginyl-lysyl-glutamyl-alanyl-glutamyl-isoleucyl-tryptophyl-threonyl-aspartyl-valine amide]”, the inhibition at 100 µM (peptide concentration 0.10 Mm) is 19%. The inhibition at 300 µM (peptide concentration 0.30 Mm) turned out to be 63%. The inhibition at 1000 µM (peptide concentration 1.0 Mm) was found to be 67%.
